Experimental data reported in patent US20240122212A1 (SUNTORY HOLDINGS LIMITED, priority 2020, published 2024).

Assay: Degree of sweetness relative to sucrose
From the text: The “sweetness intensity” means an intensity of sweetness of a substance. […] A numerical value obtained by multiplying the degree of sweetness by a concentration Brix value of glucose is the sweetness intensity of glucose in terms of sucrose. Thus, when a concentration of glucose in terms of sucrose is Brix 1.5, the sweetness intensity of glucose is 0.65×1.5=0.975. The sweetness intensity of a sweetener in terms of sucrose can be calculated from a degree of sweetness shown in the following table or a value of a known degree of sweetness.
For example, when the sweetness intensity of sucrose per unit concentration Brix 1 is defined as a degree of sweetness of 1, a degree of sweetness of rebaudioside D is about 200 to 250 (median value 225), a degree of sweetness of rebaudioside M is about 200 to 260 (median value 230), a degree of sweetness of rebaudioside B is about 325, a degree of sweetness of rebaudioside A is about 200 to 300 (median value 250), a degree of sweetness of rebaudioside N is about 200 to 250 (median value 225), a degree of sweetness of rebaudioside O is about 200 to 250 (median value 225), a degree of sweetness of rebaudioside E is about 70 to 80 (median value 75), a degree of sweetness of a Luo han guo extract (containing 40% of Mog V) is about 110 to 150 (median value 130), a degree of sweetness of mogroside V is about 240 to 300 (median value 270), and a degree of sweetness of thaumatin is about 2,000, and a degree of sweetness of brazzein is about 500 to 2,000 (median value 1,250). The numerical value obtained by multiplying these degrees of sweetness by a concentration (w/v % (considered to be the same as w/w % in the case of a beverage)) of the high-intensity sweetener in a fruit juice beverage is a sweetness intensity of the high-intensity sweetener. The relative ratio in degrees of sweetness of various sweeteners to the degree of sweetness of 1 of sucrose can be determined from a known sugar sweetness conversion table, and the like. In the present description, when a degree of sweetness is shown in a numerical value range, the median value may be used. However, a sweetener having different values in a degree of sweetness by literatures, a relative ratio in a degree of sweetness to the degree of sweetness of 1 of sucrose can be defined by a sensory test. Examples of such a sensory test include a method in which samples were prepared by adding sucrose having a sweetness intensity of Brix 3.0 to 5.0 in 0.5 increments to pure water, and of which a sucrose-added sample having a sweetness intensity equal to an aqueous solution of a sweetener in a predetermined concentration is selected.
Additionally, for a sweetener with a variable degree of sweetness as a sweetness intensity increases, degrees of sweetness in different concentrations are actually measured and plotted whereby a degree of sweetness in a predetermined concentration may be calculated from the obtained approximate curve.

## O=C[C@@H](O)[C@H](O)[C@H](O)CO [D-Arabinose]
According to the confirmation by the present inventors
  degree of sweetness, times as much as that of sucrose: about 0.6 times
Value used to design the sample solutions
  degree of sweetness, times as much as that of sucrose: 0.6 times
Value used to design the sample solutions of Example 5
  sweetness intensity, times as much as that of sucrose: 0.6 times
